# What was measured:
# [1] = target: KCa2.1 (Homo sapiens (Human), UniProt Q92952); test: Whole-cell patch-clamp, KCa2.1; format: cell-based
# Protocol: (§1) HEK-293 or COS-7 cells stably expressing hKCa2.1, rKCa2.2, and hKCa2.3 have been described previously (Sankaranarayanan et al., 2009). Cells were held at −80 mV and KCa currents elicited by dialysis with a K^+ aspartate based internal containing 250 nM free Ca^2+ (pH 7.2, 290 mOsm, pipette resistance 1.5 MΩ). To reduce currents from native chloride channels, Na^+ aspartate Ringer was used as an external solution. KCa2 currents were recorded with 200-ms voltage ramps from −120 to +40 mV applied every 10 s, and the fold increase of slope conductance at −80 mV by drug was taken as a measure of channel activation. Data analysis, fitting, and plotting were performed with IGOR-Pro (Wavemetrics, Lake Oswego, Oreg., USA) and Origin 9.0 (OriginLab, Northampton, Mass., USA).
# [2] = test system: MES-induced seizures; test: Maximal electroshock (MES) seizure test, mice (ASP, methylcellulose suspension); format: in vivo
# Protocol: SKA-19 was tested under the auspices of the National Institutes of Health's Anticonvulsant Screening Program (ASP). Experiments were performed in male albino CF (Carworth Farms) No. 1 mice or Sprague-Dawley rats according to the established protocols of the ASP (White et al., 2002). SKA-19 was suspended in 0.5% methylcellulose and administered in a volume that permits accuracy of dosage without excessively contributing to total body fluid (0.01 ml/g body weight for mice and 0.04 ml/10 g body weight for rats).
# Animals received an electrical stimulus of 0.2 s duration (50 mA in mice and 150 mA in rat at 60 Hz) delivered via corneal electrodes primed with an electrolyte solution containing 0.5% tetracaine. Animals were restrained by hand and released immediately after stimulation to permit observation of the seizure throughout its entire course. In the initial screens to identify anticonvulsant activity mice were tested at 30 minutes and 4 hours following doses of 3, 10, 30, 100 and 300 mg/kg of SKA-19 and rats tested at time intervals between 0.25 and 4 hours following a standard oral dose of 30 mg/kg. In the subsequent, more quantitative tests at least four doses of SKA-19 (n=8 per dose) were tested at the previously determined time of peak effect (TPE). Abolition of hindlimb tonic extension indicates the test compound's ability to inhibit MES-induced seizure spread. Tonic extension is considered abolished if the hind limbs are not fully extended at 180° with the body.
# [3] = test system: hippocampal kindled rats; test: Hippocampal kindled seizures; format: in vivo
# Protocol: Bipolar electrodes were surgically implanted into the hippocampus of anesthetized rats, which were allowed to recover for one week. One week after the surgery, the rats were stimulated with suprathreshold trains of 200 μAmps for 10 sec, 50 Hz, every 30 min for 6 hours (12 stimulations per day) on alternate days (4 to 5 stimulus days) until they were fully kindled. One week later the effect of a single i.p. dose of test compound was assessed on behavioral seizure score (BSS) and afterdischarge duration (ADD). An initial group of kindled rats (n=6-8) were tested at 15, 45, 75, 105, 135, 165, and 195 min after drug administration. Results obtained at the various time points were compared with the last control stimulus delivered 15 minutes prior to drug administration. Thus, each animal serves as its own control. The BSS's were scored according to the following criteria: Stage 1—mouth and facial clonus; Stage 2—stage 1 plus head nodding; Stage 3—stage 2 plus forelimb clonus; Stage 4—stage 3 plus rearing; Stage 5—stage 4 plus repeated rearing and falling. The afterdischarge threshold (ADT) is measured in the kindled rat. […] The BSS and ADD for each dose were averaged at the TPE, the S.E.M. calculated, and the significance of the difference compared to control values determined. (Significant differences in BSS from control and treated groups are determined by the non-parametric Mann-Whitney U test).
# [4] = test system: rats; test: Acute toxicity, neurological status of rats (positional sense, muscle tone, gait and stance); format: in vivo
# Protocol: (§2) Abnormal neurological status in rats was evaluated by the positional sense test, the muscle tone test, and the gait and stance test. Inability of the rat to perform normally in at least two of these tests is taken as an indication of some neurological deficit.
# [5] = as above; format: in vivo; conditions: Sprague-Dawley, rat, in vivo, rats
# Protocol: as §2
# [6] = target: Nav1.4 (Homo sapiens (Human), UniProt P35499); test: Voltage-clamp, Nav1.4 in HEK-293 cells; format: cell-based
# Protocol: All experiments were conducted at room temperature (22-24° C.) with an EPC-10 amplifier and Pulse software (HEKA, Lambrecht/Pfalz, Germany) in the whole-cell mode of the patch-clamp technique. Human embryonic kidney (HEK)-293 cell lines stably expressing hNav1.1, hNav1.5, hNav1.7 channels (generously provided by Dr. Christopher Lossin, University of California Davis), hNav1.4 (Frank Lehmann-Horn, University of Ulm), or hKv2.1 channels (James Trimmer, University of California Davis) were bathed in extracellular solution containing (in mM): 160 NaCl; 4.5 KCl; 1 MgCl2; 2 CaCl2; 10 HEPES [pH was adjusted to 7.4 using NaOH (310 mOsm)]. Pipettes were filled with intracellular solution containing (in mM): 145 KF; 2 MgCl2; 10 ethylene glycol tetraacetic acid; 10 HEPES (pH adjusted to 7.2 with KOH; 300 mOsm). Neuroblastoma N1E-115 cells (ATCC, Manassa, Va., USA) expressing Nav1.2 were patched with a CsF internal solution consisting of (in mM): 10 NaF; 110 CsF; 20 CsCl; 2 ethylene glycol tetraacetic acid; 10 HEPES (CsOH to pH 7.35; 300 mOsm). All pipette tip resistances were 2-4 MΩ. Series resistances of 3-10 MΩ were compensated 40-80%. All cells were voltage-clamped to a holding potential of −90 mV unless otherwise specified. The sampling frequency was 5 kHz. Na^+ currents were elicited by 30-ms pulse to 0 mV from −90 mV applied every 10 s. […]
# [7] = target: KCa2.3 (SK3) (Homo sapiens (Human), UniProt Q9UGI6); test: Whole-cell patch-clamp, KCa2.3; format: cell-based; conditions: 250 nM free intracellular Ca2+; read-out: EC50 or IC50, KCa2.3
# Protocol: as §1
# [8] = test system: lamotrigine resistant amygdala kindled rats; test: Lamotrigine resistant amygdala kindled rats; format: in vivo
# [9] = ASP anticonvulsant testing, suspension in 0.5% methylcellulose
# Chain of Nav1.4 (P35499 whole entry): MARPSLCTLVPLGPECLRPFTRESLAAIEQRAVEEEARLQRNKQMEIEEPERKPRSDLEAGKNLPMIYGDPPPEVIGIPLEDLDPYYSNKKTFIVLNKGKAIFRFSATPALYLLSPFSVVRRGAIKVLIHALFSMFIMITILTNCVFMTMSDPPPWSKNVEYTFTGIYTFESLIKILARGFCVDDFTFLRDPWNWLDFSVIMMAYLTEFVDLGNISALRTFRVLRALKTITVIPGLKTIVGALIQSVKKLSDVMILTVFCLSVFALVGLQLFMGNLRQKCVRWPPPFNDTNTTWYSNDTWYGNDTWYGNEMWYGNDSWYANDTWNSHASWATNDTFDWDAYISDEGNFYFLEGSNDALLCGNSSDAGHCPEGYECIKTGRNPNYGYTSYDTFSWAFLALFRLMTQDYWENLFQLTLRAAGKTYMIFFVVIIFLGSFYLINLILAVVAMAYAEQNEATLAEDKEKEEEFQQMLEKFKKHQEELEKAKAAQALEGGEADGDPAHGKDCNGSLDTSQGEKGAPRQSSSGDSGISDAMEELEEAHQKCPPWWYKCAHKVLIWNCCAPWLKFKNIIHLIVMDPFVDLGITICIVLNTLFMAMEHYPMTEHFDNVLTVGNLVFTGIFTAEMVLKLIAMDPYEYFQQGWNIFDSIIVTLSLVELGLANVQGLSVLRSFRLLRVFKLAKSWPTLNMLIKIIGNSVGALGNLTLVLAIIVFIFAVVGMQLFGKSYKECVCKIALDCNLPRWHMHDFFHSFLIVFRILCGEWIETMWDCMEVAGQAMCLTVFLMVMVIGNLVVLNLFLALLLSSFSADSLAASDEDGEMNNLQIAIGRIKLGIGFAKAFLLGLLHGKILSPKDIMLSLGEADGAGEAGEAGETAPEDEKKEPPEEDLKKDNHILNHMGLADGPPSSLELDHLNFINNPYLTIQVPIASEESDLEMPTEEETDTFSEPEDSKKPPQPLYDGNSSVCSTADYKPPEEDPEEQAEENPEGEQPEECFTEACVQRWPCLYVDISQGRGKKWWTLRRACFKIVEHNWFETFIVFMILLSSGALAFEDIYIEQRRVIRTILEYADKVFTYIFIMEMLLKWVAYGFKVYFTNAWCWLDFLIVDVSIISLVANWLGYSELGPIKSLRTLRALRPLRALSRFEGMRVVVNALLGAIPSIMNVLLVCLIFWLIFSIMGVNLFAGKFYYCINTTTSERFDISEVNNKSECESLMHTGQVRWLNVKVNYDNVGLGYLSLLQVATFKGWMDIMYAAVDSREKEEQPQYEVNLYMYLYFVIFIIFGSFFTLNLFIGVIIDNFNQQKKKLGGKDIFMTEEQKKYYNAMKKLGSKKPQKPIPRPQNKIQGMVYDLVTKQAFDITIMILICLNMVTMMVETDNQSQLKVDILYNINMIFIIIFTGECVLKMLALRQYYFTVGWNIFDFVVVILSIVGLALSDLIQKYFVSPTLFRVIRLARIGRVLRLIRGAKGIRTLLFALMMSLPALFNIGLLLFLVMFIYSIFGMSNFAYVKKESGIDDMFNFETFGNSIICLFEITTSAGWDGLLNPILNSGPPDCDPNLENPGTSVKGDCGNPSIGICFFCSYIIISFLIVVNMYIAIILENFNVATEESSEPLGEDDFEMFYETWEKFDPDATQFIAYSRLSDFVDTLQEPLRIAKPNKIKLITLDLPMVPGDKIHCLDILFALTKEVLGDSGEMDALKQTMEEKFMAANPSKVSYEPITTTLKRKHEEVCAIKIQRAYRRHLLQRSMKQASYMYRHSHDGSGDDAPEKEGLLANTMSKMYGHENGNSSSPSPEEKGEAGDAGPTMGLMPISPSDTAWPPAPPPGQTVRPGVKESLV
compound,measurement,setting,value
"Nc1nc2ccc(SC(F)(F)F)cc2s1 [SKA-19, 6-((trifluoromethyl)thio)benzo[d]thiazol-2-amine]",EC50,"[1]; 250 nM free intracellular Ca2+, read-out: EC50 or IC50, KCa2.1",> 100 µM
same,effect on KCa2.1 currents,[1]; 100 and 200 μM,very weak effects
same,duration of activity,[2]; [9],4 h
same,time of peak activity / maximal effect,[2]; [9],1 to 2 h
same,ED50,"[2]; Mus musculus, ip, mice, i.p., methylcellulose suspension, time of peak effect (SKA-19: 2 h), read-out: ED50, seizure protection in the MES test",4.8 mg/kg
same,"protection in the MES model, initial screen","[2]; mice, i.p., 3 mg/kg",partial protection
same,"protection in the MES model, initial screen","[2]; mice, i.p., 10, 30 and 100 mg/kg",fully protected
same,protective index PI (TD50/ED50),"[2]; mice, i.p., suspension",6.2
same,afterdischarge duration (ADD),"[3]; 30 mg/kg i.p., two fully kindled rats",completely suppressed
same,seizure score after treatment,"[3]; 30 mg/kg i.p., two fully kindled rats, predrug score 4-5",0
same,ED50,"[3]; Rattus norvegicus, ip, 2 h",5.47 mg/kg
same,toxicity in kindled rats,[3]; highest dose 15 mg/kg,no evidence of toxicity
same,deaths,"[4]; rat, in vivo",No deaths
same,neurotoxicity,"[4]; rats, oral 30 mg/kg, 0.25-4 h",without inducing neurotoxicity
same,TD50,[5]; ip,14.3 mg/kg
same,TD50 at 1 h,[5]; ip,14.3 mg/kg
same,TD50 at 4 h,[5]; oral,77.4 mg/kg
same,block of Nav1.4,[6],low micromolar range
same,IC50,"[6]; read-out: EC50 or IC50, Nav1.4",4.5 ± 2.7 µM
same,EC50,[7],15 µM
same,rats protected,[8]; 6 mg/kg,2 out of 8
same,rats protected,[8]; 50 mg/kg,3 out of 7

# Reference: US9675591B2, “Methods for treating seizure disorders and pain” (THE REGENTS OF THE UNIVERSITY OF CALIFORNIA, priority 2013, dated 2017)
